Reference: US9932309B2, “2-oxo-3,4-dihydropyridine-5-carboxylates and their use” (UNIVERSITE DE LILLE 2 DROIT ET SANTE, priority 2014, dated 2018)
Structures can show the parent of a compound that is named as a salt.

Key:
hTGR5 = target: T1, hTGR5 (Homo sapiens, UniProt Q8TDU6); test: TGR5/CRE Luciferase Assay (hTGR5); type: cell-based; conditions: for EC50: HEK 293 cells co-transfected with pCMV tag4b-TGR5h and pCRE TA-Luciferase, overnight incubation; for hTGR5 % trans: percentage of the 10 μM LCA value, HEK 293 cells transfected with hTGR5
T1 construct: expressed in transfected cells; host or cells: HEK293 cells, transiently co-transfected with the pCRE TA-Luciferase reporter
T1 sequence (Q8TDU6 1-330): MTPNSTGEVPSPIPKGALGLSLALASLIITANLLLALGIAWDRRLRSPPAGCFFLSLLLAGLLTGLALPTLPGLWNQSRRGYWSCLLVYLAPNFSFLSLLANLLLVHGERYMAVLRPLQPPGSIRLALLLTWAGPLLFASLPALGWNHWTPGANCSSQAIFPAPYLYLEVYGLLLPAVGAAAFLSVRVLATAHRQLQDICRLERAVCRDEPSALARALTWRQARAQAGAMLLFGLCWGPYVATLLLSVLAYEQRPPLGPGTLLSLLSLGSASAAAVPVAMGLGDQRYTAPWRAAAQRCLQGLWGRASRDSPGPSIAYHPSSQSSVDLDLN
Procedure, shortened: (§1)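 Transiently co-transfected HEK293 cells expressing human or mouse TGR5 plus a CRE-luciferase reporter were incubated overnight with rising compound concentrations in duplicate. Luminescence reported cAMP-driven expression; 10 μM lithocholic acid served as positive reference. Curves fitted to a 4-parameter logistic.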

mTGR5 = target: T2, mTGR5 (Mus musculus, UniProt Q80SS6); test: TGR5/CRE Luciferase Assay (mTGR5); type: cell-based; conditions: for mTGR5 % trans: percentage of the 10 μM LCA value, HEK 293 cells transfected with mTGR5; for EC50: HEK 293 cells co-transfected with pCMV AC6-TGR5m and pCRE TA-Luciferase, overnight incubation
T2 construct: expressed in transfected cells; host or cells: HEK293 cells, transiently co-transfected with the pCRE TA-Luciferase reporter
T2 sequence (Q80SS6 1-329): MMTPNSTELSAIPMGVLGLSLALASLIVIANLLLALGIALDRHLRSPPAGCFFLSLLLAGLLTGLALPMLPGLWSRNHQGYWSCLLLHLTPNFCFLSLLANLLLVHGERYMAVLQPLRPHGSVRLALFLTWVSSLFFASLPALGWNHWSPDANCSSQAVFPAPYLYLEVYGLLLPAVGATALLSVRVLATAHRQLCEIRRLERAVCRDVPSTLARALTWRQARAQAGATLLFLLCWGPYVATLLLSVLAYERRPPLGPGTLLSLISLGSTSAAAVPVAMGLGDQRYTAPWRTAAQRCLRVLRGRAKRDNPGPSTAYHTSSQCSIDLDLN
Procedure, shortened: as §1

Row | SMILES | EC50 (hTGR5) [nM] | hTGR5 % trans (hTGR5) [%] | mTGR5 % trans (mTGR5) [%] | EC50 (mTGR5) [nM]
1 | CC1=C(C(=O)OCc2ccccc2)C(c2ccc(Cl)cc2)CC(=O)N1CC1CN(C)C1 (stereo not shown) [Compound 47, Benzyl 4-(4-chlorophenyl)-6-methyl-1-[(1-methylazetidin-3-yl)methyl]-2-oxo-3,4-dihydropyridine-5-carboxylate] | 6600 | 22 | 0 | 
2 | CC1=C(C(=O)OCc2ccccc2)C(c2ccc(Cl)cc2)CC(=O)N1CC1C[N+](C)(C)C1.[I-] (stereo not shown) [Compound 48, Benzyl 4-(4-chlorophenyl)-1-[(1,1-dimethylazetidin-1-ium-3-yl)methyl]-6-methyl-2-oxo-3,4-dihydropyridine-5-carboxylate iodide] | 12000 | 13 | 0 | 
3 | CC1=C(C(=O)OCc2ccccc2)C(c2ccc(Cl)cc2)CC(=O)N1CCNC(=O)OC(C)(C)C (stereo not shown) [Compound 52, Benzyl 1-[2-(tert-butoxycarbonylamino)ethyl]-4-(4-chlorophenyl)-6-methyl-2-oxo-3,4-dihydropyridine-5-carboxylate] | 2500 | 18 | 0 | 
4 | CC1=C(C(=O)OCc2ccccc2)C(c2ccc(Cl)cc2)CC(=O)N1CCN (stereo not shown) [Compound 53, Hydrochloride salt of benzyl 1-(2-aminoethyl)-4-(4-chlorophenyl)-6-methyl-2-oxo-3,4-dihydropyridine-5-carboxylate] | 4300 | 16 | 0 | 
5 | CC1=C(C(=O)OCc2ccccc2)C(c2ccc(Cl)cc2)CC(=O)N1CCCN(C)C (stereo not shown) [Compound 54, Benzyl 4-(4-chlorophenyl)-1-[3-(dimethylamino)propyl]-6-methyl-2-oxo-3,4-dihydropyridine-5-carboxylate] | 4200 | 10 | 0 | 
6 | CC1=C(C(=O)OCc2ccccc2)C(c2ccc(Cl)cc2)CC(=O)N1CCN1CCCC1 (stereo not shown) [Compound 55, Benzyl 4-(4-chlorophenyl)-6-methyl-2-oxo-1-(2-pyrrolidin-1-ylethyl)-3,4-dihydropyridine-5-carboxylate] | 4500 | 47 | 5 | 
7 | CC1=C(C(=O)OCc2ccccc2)C(c2ccc(Cl)cc2)CC(=O)N1CCN1CCCCC1 (stereo not shown) [Compound 56, Benzyl 4-(4-chlorophenyl)-6-methyl-2-oxo-1-[2-(1-piperidyl)ethyl]-3,4-dihydropyridine-5-carboxylate] | 3600 | 50 | 3 | 
8 | CC1=C(C(=O)OCc2ccccc2)C(c2ccc(Cl)cc2)CC(=O)N1CC(=O)OC(C)(C)C (stereo not shown) [Compound 58, Benzyl 1-(2-tert-butoxy-2-oxo-ethyl)-4-(4-chlorophenyl)-6-methyl-2-oxo-3,4-dihydropyridine-5-carboxylate] | 1340 | 50 | 70 | 420
9 | CC1=C(C(=O)OCc2ccccc2)C(c2ccc(Cl)cc2)CC(=O)N1Cc1nc(C)no1 (stereo not shown) [Compound 59, Benzyl 4-(4-chlorophenyl)-6-methyl-1-[(3-methyl-1,2,4-oxadiazol-5-yl)methyl]-2-oxo-3,4-dihydropyridine-5-carboxylate] | 1100 | 21 | 18 | 12400
10 | CC1=C(C(=O)OCc2ccccc2)C(c2ccc(Cl)cc2)CC(=O)N1CC(N)=O (stereo not shown) [Compound 60, Benzyl 1-(2-amino-2-oxo-ethyl)-4-(4-chlorophenyl)-6-methyl-2-oxo-3,4-dihydropyridine-5-carboxylate] | 13500 | 42 | 32 | 14400

Other lines, results leading:

Row | EC50 (hTGR5) [nM] | hTGR5 % trans (hTGR5) [%] | mTGR5 % trans (mTGR5) [%] | EC50 (mTGR5) [nM] | SMILES
11 | 2300 | 69 | 42 | 5900 | CC1=C(C(=O)OCc2ccccc2)C(c2ccc(Cl)cc2)CC(=O)N1CCS(C)(=O)=O (stereo not shown) [Compound 62, Benzyl 4-(4-chlorophenyl)-6-methyl-1-(2-methylsulfonylethyl)-2-oxo-3,4-dihydropyridine-5-carboxylate]
12 | 2200 | 50 | 57 | 2000 | CC1=C(C(=O)OCc2ccccc2)C(c2ccc(Cl)cc2)CC(=O)N1CC#N (stereo not shown) [Compound 63, Benzyl 4-(4-chlorophenyl)-1-(cyanomethyl)-6-methyl-2-oxo-3,4-dihydropyridine-5-carboxylate]
13 | 200 | 62 | 78 | 100 | COc1ccccc1COC(=O)C1=C(C)N(Cc2ccco2)C(=O)CC1c1ccc(Cl)cc1 (stereo not shown) [Compound 66]
14 | 300 | 105 | 104 | 400 | CCOC(=O)CN1C(=O)CC(c2ccc(Cl)cc2)C(C(=O)OCc2ccccc2OC)=C1C (stereo not shown) [Compound 69, (2-methoxyphenyl)methyl 4-(4-chlorophenyl)-1-(2-ethoxy-2-oxo-ethyl)-6-methyl-2-oxo-3,4-dihydropyridine-5-carboxylate]
15 | 70 | 65 | 102 | 80 | COc1ccccc1COC(=O)C1=C(C)N(CC2CC2)C(=O)CC1c1ccc(Cl)cc1 (stereo not shown) [Compound 70, o-methoxybenzyl 4-(4-chlorophenyl)-1-(cyclopropylmethyl)-6-methyl-2-oxo-3,4-dihydropyridine-5-carboxylate]
16 | 200 | 94 | 85 | 800 | COCCCN1C(=O)CC(c2ccc(Cl)cc2)C(C(=O)OCc2ccccc2OC)=C1C (stereo not shown) [Compound 71, (2-methoxyphenyl)methyl 4-(4-chlorophenyl)-1-(3-methoxypropyl)-6-methyl-2-oxo-3,4-dihydropyridine-5-carboxylate]
17 | 80 | 99 | 92 | 200 | COc1ccccc1COC(=O)C1=C(C)N(CC2OCCO2)C(=O)CC1c1ccc(Cl)cc1 (stereo not shown) [Compound 72, (2-methoxyphenyl)methyl 4-(4-chlorophenyl)-1-(1,3-dioxolan-2-ylmethyl)-6-methyl-2-oxo-3,4-dihydropyridine-5-carboxylate]
18 | 3000 | 42 | 53 | 2500 | CCOC(=O)C1=C(c2ccccc2)N(C)C(=O)CC1c1ccc(Cl)cc1 (stereo not shown) [Example 20, Ethyl 4-(4-chlorophenyl)-1-methyl-2-oxo-6-phenyl-3,4-dihydropyridine-5-carboxylate]
19 | 7800 | 34 | 25 | 18300 | COCCN1C(=O)CC(c2ccc(Cl)cc2)C(C(=O)NCc2ccccc2)=C1C (stereo not shown) [Example 75, N-benzyl-4-(4-chlorophenyl)-1-(2-methoxyethyl)-6-methyl-2-oxo-3,4-dihydropyridine-5-carboxamide]
20 | 2900 | 71 | 73 | 12300 | COCCN1C(=O)CC(c2ccc(Cl)cc2)C(C(=O)N2CCCc3ccccc32)=C1C (stereo not shown) [Example 77, 4-(4-chlorophenyl)-5-(3,4-dihydro-2H-quinoline-1-carbonyl)-1-(2-methoxyethyl)-6-methyl-3,4-dihydropyridin-2-one]
